We go through four compounds from US8367094B2, “Antimicrobial material and method for making the same” (priority 2008, dated 2013).

Assay [1] deals with P. aeruginosa. To be noted: known in the art; cited from earlier work.
Assay [2] deals with S. aureus. Briefly: in vitro agar zone of inhibition (ZOI) test. The class given is cell-based. To be noted: 24 hours.
Experimental: In an experimental procedure, using a commercially-available, medical grade polyurethane (PU) solution (available, for example from ChronoFlex AR, CardioTech International, Inc. of Woburn, Mass.), silver salt(s) is/are manually incorporated into the solution. The silver-loaded ChronoFlex solution is spread onto glass, and dried in a circulating oven at 80 C for 1.5 hours. The loaded PU film was allowed to equilibrate at RT for at least two days, and subsequently demolded. The film was manually cut into circles by means of a cork borer, and placed into serially-labeled Petri dishes. The microbiology technician was blinded regarding which silver salts were incorporated into the film. Two types of silver salts were tested as described generally above: (1) soluble salts for quick release, and (2) an insoluble salt for longevity.
If the test samples show a “zone of inhibition” (“ZOI”) the specimen thus display the capacity to kill the microorganisms tested. The ZOI is measured in mm; the greater the ZOI distance, the more powerful is the microbiocidal effect. Note that, prior to application, the test films were sterilized using short-wave UV at a distance of 2 inches for 10 seconds.
Using a 10 mm sample disc, the microbial growth inhibition was measured from the edge of each sample disc, producing antimicrobial results in accordance with the following Table:

Regarding `[H]/N=C(\N/C(=N/[H])NCCCCCCNC(=N)NC(=N)Nc1ccc(Cl)cc1)Nc1ccc(Cl)cc1` [chlorhexidine], the “effectiveness against Gram-negative rods (such as pseudomonas aeruginosa)” value in assay [1] is given as “somewhat ineffective”.

On to `O=C([O-])C(F)(F)F.[Ag+]` [silver trifluoroacetate], for which the “microbiocidal activity against S. aureus, in words” value in assay [2] was “effective against Gram-positives, but for very short periods of time”. With `O=C([O-])c1ccccc1.[Ag+]` [silver benzoate], the “microbiocidal activity against S. aureus, in words” value in assay [2] is recorded as “totally ineffective”. The same measure, in the same setting: next, `CC(O)C(=O)[O-].[Ag+]` (stereo not shown) [silver lactate]: “totally ineffective”.
